Read-outs that look alike come from different tables or passages of the source.
Experiments:
MOP = MOP (Homo sapiens, UniProt P35372); test: GPCR panel, cAMP or calcium FLIPR assays; format: cell-based
Description: 28 GPCRs were evaluated through cAMP or calcium FLIPR assays[67]. A panel of 52 different receptors, ion channels and transporters was tested by Cerep, Inc. (Redmond, WA). Kinase selectivity was conducted by Eurofins Panlabs Inc (St Charles, MO).

Aurora-B(h) = biological target: T1, Aurora-B(h) (Homo sapiens, UniProt Q96GD4); test: Kinase panel; format: biochemical
T1 construct: purchased Cerep (receptors, ion channels, transporters); Eurofins Panlabs (kinases)
Description: (§2) Kinase selectivity was conducted by Eurofins Panlabs Inc (St Charles, MO).

PR = biological target: T2, PR (Homo sapiens, UniProt P06401); test: nuclear receptor cellular GAL4 reporter assay; format: cell-based; conditions: agonist and antagonist mode; read-out: potency in agonist and antagonist mode
T2 construct: expressed in transfected cells

D2S (h) = biological target: T3, D2S (h) (Homo sapiens, UniProt P14416); test: Cerep panel; format: binding
T3 construct: purchased Cerep (receptors, ion channels, transporters); Eurofins Panlabs (kinases)
Description: (§3) A panel of 52 different receptors, ion channels and transporters was tested by Cerep, Inc. (Redmond, WA).

H2 (h) = biological target: T4, H2 (h) (Homo sapiens, UniProt P25021); test: Cerep panel; format: binding
T4 construct: purchased Cerep (receptors, ion channels, transporters); Eurofins Panlabs (kinases)
Description: as §3

A3 = biological target: T5, A3 (Homo sapiens, UniProt P0DMS8); test: follow-up functional study; format: cell-based; conditions: read-out: IC50 in follow-up functional studies
T5 sequence (P0DMS8 1-318): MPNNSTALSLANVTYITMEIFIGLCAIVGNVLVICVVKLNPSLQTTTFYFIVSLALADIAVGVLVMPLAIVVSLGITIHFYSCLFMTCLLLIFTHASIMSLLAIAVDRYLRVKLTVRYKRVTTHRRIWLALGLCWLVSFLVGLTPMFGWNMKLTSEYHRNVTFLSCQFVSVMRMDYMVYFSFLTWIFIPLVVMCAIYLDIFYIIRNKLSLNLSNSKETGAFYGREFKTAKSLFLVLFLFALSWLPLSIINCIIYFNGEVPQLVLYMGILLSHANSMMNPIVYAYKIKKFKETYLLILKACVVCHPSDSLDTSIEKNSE

CXCR2 (h) (IL-8B) = biological target: T6, CXCR2 (h) (IL-8B) (Homo sapiens, UniProt P25025); test: Cerep panel; format: binding
T6 construct: purchased Cerep (receptors, ion channels, transporters); Eurofins Panlabs (kinases)
Description: as §3

mouse whole blood = test: in vitro whole blood assay, IL-17A production; format: cell-based; conditions: mouse whole blood diluted 1:4; read-out: IC50, inhibition of IL-17A production
AT1 (h) = biological target: T7, AT1 (h) (Homo sapiens, UniProt P30556); test: Cerep panel; format: binding
T7 construct: purchased Cerep (receptors, ion channels, transporters); Eurofins Panlabs (kinases)
Description: as §3

MC4 (h) = biological target: T8, MC4 (h) (Homo sapiens, UniProt P32245); test: Cerep panel; format: binding
T8 construct: purchased Cerep (receptors, ion channels, transporters); Eurofins Panlabs (kinases)
Description: as §3

Na+ channel (site 2) = test: Cerep panel; format: binding
Description: as §3

CaMKIIβ(h) = biological target: T9, CaMKIIβ(h) (Homo sapiens, UniProt Q13554); test: Kinase panel; format: biochemical
T9 construct: purchased Cerep (receptors, ion channels, transporters); Eurofins Panlabs (kinases)
Description: as §2

[1] = test system: mouse collagen-induced arthritis (CIA) model; test: mouse collagen-induced arthritis (CIA) model; format: in vivo; conditions: for reduction of clinical arthritis scores (AUC) vs vehicle, efficacy % inhibition: day 21-35
Description: On Day 0, mice (female DBA/1Lacj, Jackson Laboratories; 8–10 weeks) were immunized at the base of the tail with an emulsion containing equal amounts of Chick Type II Collagen (Chondrex, Redmond, WA) and Complete-Freund’s adjuvant (CFA, Chondrex), 100 µg each per mouse, and administered a second immunization boost on day 21. On this day, animals were examined for clinical arthritis scores and randomized into treatment groups. […] Clinical arthritis scores were evaluated from day 21 to 34, and animals were euthanized under CO2 on day 35. Both hind paws from each animal were collected and fixed in 10% neutral buffered formalin for histopathology.

Y1 (h) = biological target: T10, Y1 (h) (Homo sapiens, UniProt P25929); test: Cerep panel; format: binding
T10 construct: purchased Cerep (receptors, ion channels, transporters); Eurofins Panlabs (kinases)
Description: as §3

[2] = 1-month GLP toxicity study in dogs; format: in vivo; conditions: Beagle, in vivo, dog; for AUC(0-t) / Cmax: po, 3 mg/kg; for AUC(0-t): read-out: AUC0-24 h at NOAEL; for Cmax: read-out: Cmax at NOAEL
Description: (§1) The type of study plan was reviewed and agreed by the Laboratory Animal Welfare Officer and the Animal Ethical Committee (officially known as Dierexperimentencommissie (DEC) Charles River Den Bosch), as required by the Dutch Act on Animal Experimentation (February 1997). Both rat and dog studies were performed in AALAC accredited Charles River Laboratories in the Netherlands. Studies in rats were conducted with 0, 25, 100, and 400 mg/kg per day (n = 10/sex/group) for 1 month. An additional 5 animals/sex in vehicle and high dose were allowed to continue for a 1-month treatment-free recovery period. Studies in dogs were conducted with 0, 3, 10, and 30 mg/kg per day (n = 4/sex/group) for 1 month. A treatment-free recovery period of 1 month (additional 2 dogs/sex/group) was included for both vehicle controls and high dose groups. […] Rats and dogs were examined for mortality, clinical signs, ophthalmoscopic changes, body weight, food consumption, hematology, clinical chemistry, anatomic pathology, and toxicokinetics. In addition, dogs were examined for electrocardiographic changes. Rats and dogs were also assessed for reversal of any effects following a 1-month recovery period. These studies were conducted in compliance with good laboratory practice (GLP) regulations.

Beagle dogs = test: 1-month GLP toxicity study in dogs; format: in vivo; conditions: dog
Description: as §1

ADRB1 = ADRB1 (Homo sapiens, UniProt P08588); test: GPCR panel, cAMP or calcium FLIPR assays; format: cell-based
Description: 28 GPCRs were evaluated through cAMP or calcium FLIPR assays[67].

PKCβI(h) = biological target: T11, PKCβI(h) (Homo sapiens, UniProt P05771); test: Kinase panel; format: biochemical
T11 construct: purchased Cerep (receptors, ion channels, transporters); Eurofins Panlabs (kinases)
Description: as §2

CHK2(h) = biological target: T12, CHK2(h) (Homo sapiens, UniProt O96017); test: Kinase panel; format: biochemical
T12 construct: purchased Cerep (receptors, ion channels, transporters); Eurofins Panlabs (kinases)
Description: as §2

rat bone marrow = test: in vivo rat micronucleus test on bone marrow
CDK5/p35(h) = biological target: T13, CDK5/p35(h) (Homo sapiens, UniProt Q00535); test: Kinase panel; format: biochemical
T13 construct: purchased Cerep (receptors, ion channels, transporters); Eurofins Panlabs (kinases)
T13 sequence (Q00535 whole entry): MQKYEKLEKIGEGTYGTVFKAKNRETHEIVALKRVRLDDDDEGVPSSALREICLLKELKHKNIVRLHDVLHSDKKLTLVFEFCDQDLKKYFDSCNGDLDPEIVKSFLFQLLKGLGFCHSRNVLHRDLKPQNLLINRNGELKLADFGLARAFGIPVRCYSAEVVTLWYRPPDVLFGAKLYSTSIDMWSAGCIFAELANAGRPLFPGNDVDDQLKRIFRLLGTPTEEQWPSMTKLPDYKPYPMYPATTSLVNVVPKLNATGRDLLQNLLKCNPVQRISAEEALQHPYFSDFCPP
T13 sequence (Q15078 whole entry partner): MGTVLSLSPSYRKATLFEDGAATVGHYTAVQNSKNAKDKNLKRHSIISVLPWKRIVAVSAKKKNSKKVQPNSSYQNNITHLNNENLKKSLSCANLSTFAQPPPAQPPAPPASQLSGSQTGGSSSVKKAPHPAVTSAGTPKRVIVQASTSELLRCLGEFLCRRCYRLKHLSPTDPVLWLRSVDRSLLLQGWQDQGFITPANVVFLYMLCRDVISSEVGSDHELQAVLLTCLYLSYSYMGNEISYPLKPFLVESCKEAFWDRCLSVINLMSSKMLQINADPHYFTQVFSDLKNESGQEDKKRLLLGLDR
Description: as §2

T7 sequence (P30556 whole entry): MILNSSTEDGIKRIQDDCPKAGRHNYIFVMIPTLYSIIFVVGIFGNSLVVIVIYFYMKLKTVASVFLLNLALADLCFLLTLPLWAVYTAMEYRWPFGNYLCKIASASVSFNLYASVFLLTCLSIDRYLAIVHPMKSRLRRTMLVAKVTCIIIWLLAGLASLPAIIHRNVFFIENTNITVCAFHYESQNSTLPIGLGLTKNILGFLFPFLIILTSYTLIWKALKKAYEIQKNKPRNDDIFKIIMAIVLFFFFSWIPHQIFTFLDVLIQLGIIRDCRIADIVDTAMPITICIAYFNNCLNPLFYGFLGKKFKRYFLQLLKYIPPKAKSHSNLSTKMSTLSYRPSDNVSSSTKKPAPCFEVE
T6 sequence (P25025 whole entry): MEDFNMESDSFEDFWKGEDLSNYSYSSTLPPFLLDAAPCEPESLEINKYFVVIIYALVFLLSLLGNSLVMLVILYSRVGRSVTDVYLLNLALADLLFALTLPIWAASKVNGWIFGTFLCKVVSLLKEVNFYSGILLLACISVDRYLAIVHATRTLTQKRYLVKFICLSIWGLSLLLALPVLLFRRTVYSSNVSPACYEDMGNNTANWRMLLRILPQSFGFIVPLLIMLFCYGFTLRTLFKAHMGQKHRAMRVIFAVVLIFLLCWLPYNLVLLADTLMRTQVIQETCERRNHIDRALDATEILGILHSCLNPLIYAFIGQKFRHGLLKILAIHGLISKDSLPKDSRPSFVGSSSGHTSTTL
MOP, sequence (P35372 whole entry): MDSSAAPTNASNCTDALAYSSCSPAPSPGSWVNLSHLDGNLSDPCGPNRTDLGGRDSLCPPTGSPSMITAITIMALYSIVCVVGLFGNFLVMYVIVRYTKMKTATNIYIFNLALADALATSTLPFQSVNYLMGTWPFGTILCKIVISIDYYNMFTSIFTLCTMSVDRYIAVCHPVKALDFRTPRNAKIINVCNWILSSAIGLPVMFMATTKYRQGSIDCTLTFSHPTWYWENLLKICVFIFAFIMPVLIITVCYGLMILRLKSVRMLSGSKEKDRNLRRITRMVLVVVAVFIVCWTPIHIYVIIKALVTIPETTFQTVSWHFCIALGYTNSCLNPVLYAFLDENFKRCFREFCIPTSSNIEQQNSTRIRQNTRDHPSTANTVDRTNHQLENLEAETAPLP
ADRB1, sequence (P08588 whole entry): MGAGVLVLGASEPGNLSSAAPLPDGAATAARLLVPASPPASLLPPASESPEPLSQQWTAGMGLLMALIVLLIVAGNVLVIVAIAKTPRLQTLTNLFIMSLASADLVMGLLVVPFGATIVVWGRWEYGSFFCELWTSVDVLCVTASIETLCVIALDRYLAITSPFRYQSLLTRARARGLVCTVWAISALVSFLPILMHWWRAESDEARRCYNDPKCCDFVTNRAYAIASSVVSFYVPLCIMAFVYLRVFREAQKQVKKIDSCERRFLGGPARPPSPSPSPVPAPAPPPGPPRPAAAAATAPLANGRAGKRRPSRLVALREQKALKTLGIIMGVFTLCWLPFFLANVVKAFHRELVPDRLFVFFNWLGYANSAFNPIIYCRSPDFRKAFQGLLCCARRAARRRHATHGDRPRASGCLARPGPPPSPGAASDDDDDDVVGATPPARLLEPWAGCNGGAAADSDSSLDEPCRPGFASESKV
T3 sequence (P14416 1-414 isoform P14416-2): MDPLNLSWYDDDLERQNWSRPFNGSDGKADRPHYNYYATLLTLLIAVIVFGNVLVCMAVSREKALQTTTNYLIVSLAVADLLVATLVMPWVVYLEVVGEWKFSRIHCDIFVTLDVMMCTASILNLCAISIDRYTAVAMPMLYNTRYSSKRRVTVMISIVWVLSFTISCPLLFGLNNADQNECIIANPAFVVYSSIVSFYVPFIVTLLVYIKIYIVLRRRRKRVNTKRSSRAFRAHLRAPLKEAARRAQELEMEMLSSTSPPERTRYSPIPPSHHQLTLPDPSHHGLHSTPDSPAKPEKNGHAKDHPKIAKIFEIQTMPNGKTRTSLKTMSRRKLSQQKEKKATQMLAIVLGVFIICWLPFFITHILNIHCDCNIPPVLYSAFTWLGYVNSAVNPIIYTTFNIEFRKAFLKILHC
T1 sequence (Q96GD4 whole entry): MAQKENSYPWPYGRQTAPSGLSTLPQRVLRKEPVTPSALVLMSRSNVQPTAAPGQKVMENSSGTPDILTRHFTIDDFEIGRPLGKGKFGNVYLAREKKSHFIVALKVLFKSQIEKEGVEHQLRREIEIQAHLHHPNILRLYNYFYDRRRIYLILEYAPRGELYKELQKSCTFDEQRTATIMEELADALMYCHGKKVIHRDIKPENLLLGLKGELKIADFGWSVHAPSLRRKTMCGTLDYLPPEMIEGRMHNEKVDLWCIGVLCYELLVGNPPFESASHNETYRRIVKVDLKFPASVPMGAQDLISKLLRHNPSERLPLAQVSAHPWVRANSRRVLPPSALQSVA
T12 sequence (O96017 whole entry): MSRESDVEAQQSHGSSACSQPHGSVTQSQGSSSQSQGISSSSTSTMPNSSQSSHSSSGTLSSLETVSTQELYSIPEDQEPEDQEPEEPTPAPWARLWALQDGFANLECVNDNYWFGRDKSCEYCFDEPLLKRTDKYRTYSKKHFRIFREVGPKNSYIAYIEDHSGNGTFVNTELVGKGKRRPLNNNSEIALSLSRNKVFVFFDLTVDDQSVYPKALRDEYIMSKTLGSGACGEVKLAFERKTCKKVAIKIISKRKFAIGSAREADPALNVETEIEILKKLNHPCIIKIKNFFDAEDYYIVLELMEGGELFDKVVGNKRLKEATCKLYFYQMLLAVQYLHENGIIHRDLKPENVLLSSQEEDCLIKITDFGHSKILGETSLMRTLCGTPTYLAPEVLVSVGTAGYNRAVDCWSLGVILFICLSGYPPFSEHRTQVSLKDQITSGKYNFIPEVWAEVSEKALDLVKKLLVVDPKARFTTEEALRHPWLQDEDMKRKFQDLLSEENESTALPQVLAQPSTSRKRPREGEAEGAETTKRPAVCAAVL
T11 sequence (P05771 whole entry): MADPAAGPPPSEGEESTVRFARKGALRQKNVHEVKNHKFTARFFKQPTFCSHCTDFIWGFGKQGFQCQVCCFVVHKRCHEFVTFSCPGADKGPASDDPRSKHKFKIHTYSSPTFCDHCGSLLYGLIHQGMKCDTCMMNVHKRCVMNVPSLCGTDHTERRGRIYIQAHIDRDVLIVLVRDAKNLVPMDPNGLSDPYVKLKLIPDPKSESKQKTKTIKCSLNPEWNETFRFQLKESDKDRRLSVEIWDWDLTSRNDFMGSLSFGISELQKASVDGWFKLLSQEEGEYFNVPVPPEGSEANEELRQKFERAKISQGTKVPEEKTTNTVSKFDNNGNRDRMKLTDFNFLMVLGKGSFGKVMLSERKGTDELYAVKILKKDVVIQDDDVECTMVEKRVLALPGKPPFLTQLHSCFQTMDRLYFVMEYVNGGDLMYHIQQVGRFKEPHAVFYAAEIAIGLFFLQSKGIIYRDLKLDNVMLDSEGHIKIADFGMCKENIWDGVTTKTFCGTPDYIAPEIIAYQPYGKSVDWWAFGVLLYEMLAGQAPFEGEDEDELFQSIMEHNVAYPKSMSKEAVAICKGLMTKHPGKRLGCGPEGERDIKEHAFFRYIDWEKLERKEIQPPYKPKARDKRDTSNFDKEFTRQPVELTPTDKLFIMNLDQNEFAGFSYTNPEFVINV
T8 sequence (P32245 whole entry): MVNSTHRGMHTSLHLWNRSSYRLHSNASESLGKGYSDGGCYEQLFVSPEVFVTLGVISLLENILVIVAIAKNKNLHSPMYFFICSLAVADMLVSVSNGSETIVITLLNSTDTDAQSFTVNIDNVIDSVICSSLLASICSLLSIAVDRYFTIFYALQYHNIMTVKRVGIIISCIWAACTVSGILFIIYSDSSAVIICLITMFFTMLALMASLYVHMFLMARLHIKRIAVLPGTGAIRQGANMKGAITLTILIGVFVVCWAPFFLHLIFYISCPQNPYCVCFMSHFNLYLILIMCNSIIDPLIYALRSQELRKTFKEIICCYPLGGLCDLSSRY
T10 sequence (P25929 whole entry): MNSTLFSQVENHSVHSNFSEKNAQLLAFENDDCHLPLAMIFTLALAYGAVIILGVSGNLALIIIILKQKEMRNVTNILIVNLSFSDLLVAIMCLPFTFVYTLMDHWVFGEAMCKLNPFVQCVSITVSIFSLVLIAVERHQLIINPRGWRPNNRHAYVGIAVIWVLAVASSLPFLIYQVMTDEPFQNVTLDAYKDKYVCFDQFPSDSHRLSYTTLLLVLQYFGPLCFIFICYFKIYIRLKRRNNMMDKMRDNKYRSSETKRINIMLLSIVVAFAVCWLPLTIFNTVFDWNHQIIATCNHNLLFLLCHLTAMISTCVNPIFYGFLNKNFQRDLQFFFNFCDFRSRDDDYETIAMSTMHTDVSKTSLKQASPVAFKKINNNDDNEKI

CC1CCCN1C(=O)c1nc(C(=O)NCC(C)(C)O)sc1-c1ccc(C(O)(C(F)(F)F)C(F)(F)F)c(Cl)c1Cl (centres unmarked) [JNJ-61803534]
EC50 (MOP; agonist): > 12.5 µM | IC50 (MOP; antagonist): > 12.5 µM | activity at 1 µM (Aurora-B(h)): 124% | activity at 10 µM (Aurora-B(h)): 145% | IC50 (PR): > 1.5 µM | inhibition at 1 µM (D2S (h)): < 10% | inhibition at 10 µM (D2S (h)): < 10% | inhibition at 1 µM (H2 (h)): < 10% | inhibition at 10 µM (H2 (h)): 16.6% | IC50 (A3): > 12.5 µM | inhibition at 1 µM (CXCR2 (h) (IL-8B)): < 10% | inhibition at 10 µM (CXCR2 (h) (IL-8B)): < 10% | IC50 (mouse whole blood): 0.172 ± 0.05 µM | inhibition at 1 µM (AT1 (h)): < 10% | inhibition at 10 µM (AT1 (h)): < 10% | inhibition at 1 µM (MC4 (h)): < 10% | inhibition at 10 µM (MC4 (h)): < 10% | % Inhibition at 1 µM (Na+ channel (site 2); 1 µM): 15% | % Inhibition at 10 µM (Na+ channel (site 2); 10 µM): 46% | activity at 1 µM (CaMKIIβ(h)): 89% | activity at 10 µM (CaMKIIβ(h)): 92% | disease incidence at day 35 ([1]; 3 mg/kg BID): 100% | reduction of clinical arthritis scores (AUC) vs vehicle, efficacy % inhibition ([1]; 3 mg/kg BID oral): 30% | disease incidence at day 35 ([1]; 10 mg/kg BID): 89% | reduction of clinical arthritis scores (AUC) vs vehicle, efficacy % inhibition ([1]; 10 mg/kg BID oral): 44% | disease incidence at day 35 ([1]; 30 mg/kg BID): 80% | reduction of clinical arthritis scores (AUC) vs vehicle, efficacy % inhibition ([1]; 30 mg/kg BID oral): 66% | disease incidence at day 35 ([1]; 60 mg/kg QD): 100% | reduction of clinical arthritis scores (AUC) vs vehicle, efficacy % inhibition ([1]; 60 mg/kg QD oral, p > 0.05): 13% | disease incidence at day 35 ([1]; 100 mg/kg BID): 45% | reduction of clinical arthritis scores (AUC) vs vehicle, efficacy % inhibition ([1]; 100 mg/kg BID oral): 88% | inhibition of total histopathology score ([1]; 100 mg/kg, BID, oral): 94% | maximum inhibition for final arthritic score ([1]; 100 mg/kg, BID, oral): 88% | maximum inhibition of clinical score ([1]; mouse, in vivo): ~ 90% | inhibition at 1 µM (Y1 (h)): < 10% | inhibition at 10 µM (Y1 (h)): < 10% | AUC(0-t) ([2]; female): 142 µg·h/mL | Cmax ([2]; female): 7500 ng/mL | AUC(0-t) ([2]; male): 118 µg·h/mL | Cmax ([2]; male): 7250 ng/mL | NOAEL at 1 month ([2]; both sexes, 1 month oral): 3 mg/kg | tolerability (Beagle dogs; 10 mg/kg/day, weight loss and reduced food consumption in the fourth week, trend for increased ALP): clinically well tolerated during the first 3 weeks of treatment | tolerability (Beagle dogs; 30 mg/kg/day, intestinal mucosal hemorrhages and slight hepatocellular lipid vacuolation in some animals): exceeded the maximum tolerated dose | lymphocyte apoptosis in thymus (Beagle dogs; recovered after 1-month recovery period): dose-dependent lymphocyte apoptosis in thymus was observed | EC50 (ADRB1; agonist): > 12.5 µM | IC50 (ADRB1; antagonist): > 12.5 µM | activity at 1 µM (PKCβI(h)): 97% | activity at 10 µM (PKCβI(h)): 87% | activity at 1 µM (CHK2(h)): 107% | activity at 10 µM (CHK2(h)): 111% | genetic toxicity (rat bone marrow): negative | activity at 1 µM (CDK5/p35(h)): 97% | activity at 10 µM (CDK5/p35(h)): 107%

Source: paper PMC8155022 (Scientific Reports, 2021)
